# Measurements taken from patent US6482402B1, “Antimicrobial compositions and methods” (GelTex Pharmaceuticals, Inc., priority 1999, dated 2002).
# Several values for one entry are separate records, joined by “and”; a condition that tells them apart may be missing. Equal entries are not always repeated.
# Experiments:
# C. parvum oocysts [1] = assay: In vivo oocyst shedding in C. parvum infected SCID mice; details: SCID mice infected day 0; prm alone 500 mg/kg/day by oral gavage from day 7; fecal smears, acid fast staining; water alone 25
# Method: In vivo activity of selected polymers in combination with parmomycin
# Severe combined immunodeficient mice (SCID) were infected with C. parvum oocysts on day 0. On day 7, mice were treated with water or Polymers A, E and D by delivery in maple flavored drinking water at 2000 mg/kg/day. For each treatment, mice additionally received water or 500 mg/kg/day paromomycin (prm) by oral gavage. Oocyst shedding was quantitated in fecal smears by acid fast staining. Average numbers of oocysts shed were as follows: Treatment with water alone, 25; treatment with prm alone 12. Treatment with polymers alone gave modest changes in oocysts shedding and ranged from ˜20% reduction in oocysts; to a ˜20% increase in shedding, relative to treatment with water alone. Combination of polymers with prm gave reductions in oocysts in the range of 50-90% relative to treatment with prm alone.
# C. parvum oocysts [2] = assay: In vitro C. parvum infectivity in Madin Darby Bovine Kidney cells (fluorescent antibody count of infected cells); assay type: cell-based, Cryptosporidium parvum; details: MDBK cells, 46 hours of infection, means of 12 high powered fields
# Method: Activity of polyfensin compounds for Cryptosporidium parvum in vitro. Combination therapy of Polymer B with paromomycin Madin Darby Bovine Kidney cells were infected with C. parvum oocysts in the presence of media alone, paromomycin (2 and 0.25 mg/ml), Polymer B (0.01 or 0.001 mg/ml) or Polymer B (0.01 or 0.001 mg/ml) plus paromomycin at 0.25 mg/ml. After 4 hours of treatment, polymer was removed and replaced with media. After 46 hours of infection the monolayers were fixed, stained with fluorescent antibodies to cryptosporidium, and the numbers of infected cells were enumerated. Parasite numbers represent the means of 12 high powered fields, and numbers of parasites were normalized relative to treatment with media alone (arbitrarily set at 100). […] In vitro Combination therapy of Polymer A with paromomycin. Madin Darby Bovine kidney cells were infected with C. parvum oocysts in the presence of media alone, paromomycin (2 and 0.25 mg/ml), Polymer A (0.01 or 0.001 mg/ml) or Polymer A (0.0 1 or 0.00 1 mg/ml plus paromomycin at 0.25 mg/ml). After 4 hours of treatment, polymer was removed and replaced with media. After 46 hours of infection the monolayers were fixed, stained with fluorescent antibodies to cryptosporidium, and the numbers of infected cells were enumerated. Parasite numbers represent the means of 12 high powered fields, and numbers of parasites were normalized relative to treatment with media alone (arbitrarily set at 100).
compound,measurement,setting,value
NC[C@@H]1O[C@H](O[C@H]2[C@@H](O)[C@H](O[C@@H]3[C@@H](O)[C@H](N)C[C@H](N)[C@H]3O[C@H]3O[C@H](CO)[C@@H](O)[C@H](O)[C@H]3N)O[C@@H]2CO)[C@H](N)[C@@H](O)[C@@H]1O [paromomycin],Average numbers of oocysts shed,C. parvum oocysts [1],12
same,parasite numbers normalized relative to treatment with media alone (arbitrarily set at 100),C. parvum oocysts [2]; paromomycin alone at 0.25 mg/ml,61.5 and 73.0
same,parasite numbers normalized relative to treatment with media alone (arbitrarily set at 100),C. parvum oocysts [2]; paromomycin alone at 2 mg/ml,15.3
same,parasite numbers normalized relative to treatment with media alone (arbitrarily set at 100),"C. parvum oocysts [2]; paromomycin alone at 2 mg/ml, listed as parmomycin",15.4
